The record followed here is publication PMC10572522, “A Designed Analog of an Antimicrobial Peptide, Crabrolin, Exhibits Enhanced Anti-Proliferative and In Vivo Antimicrobial Activity” (International Journal of Molecular Sciences, 2023).

Data set [1] relates to human keratinocyte cell line HaCaT. Description: LDH cell cytotoxicity assay. It counts as cell-based. The settings on record: for LDH leakage: 25 μM, 24 h. As to the method: (§1) A Pierce LDH cytotoxicity assay kit (Thermo Scientific, Waltham, MA, USA) was applied for the LDH assay. An immortalized human microvascular endothelial cell line, HMEC-1, and a human keratinocyte cell line, HaCaT, were used in the LDH assay. A total of 8000 cells were placed in each well of the 96-well tissue culture plate with 100 µL of medium and incubated at 37 °C with 5% CO2 overnight. The cells were cultured with different drug concentrations ranging from 100 µM to 1µM for 24 h. […] of lysis buffer was prepared as the maximum LDH activity control. After incubating at 37 °C with 5% CO2 for 45 min, 50 µL of the sample was transferred into each well medium in a 96-well flat-bottom plate. Then, 50 µL of the reaction mixture was transferred to the wells and mixed. The 96-well plate was cultured for 30 min and protected from light at room temperature. Then, 50 µL of stop solution (supplied in the kit) was added to each well and mixed. The absorbance was detected at 490 nm and 680 nm.
On the technique in general: LDH in the medium is a marker of cell lysis.

For data set [2], the system named is immortalized human microvascular endothelial cell line HMEC-1. Description: LDH cell cytotoxicity assay. In kind it is cell-based. Here is the method:
as §1

In data set [3] the test system is P. aeruginosa (ATCC 9027) biofilm. In kind it is cell-based, Pseudomonas aeruginosa. The following applies: for MBIC: biofilm inhibitory rate more than 90%; for MBEC: eradication rate greater than 99.9%. As to the method: (§2) To measure the antibiofilm activity of crabrolin and its derivatives, four drug-resistant biofilm-forming strains, MRSA (NCTC 12493), K. pneumoniae (ATCC 43816), E. faecium (NTCC-12697), and P. aeruginosa (ATCC 9027), were used in this assay. Tryptic soy broth (TSB) (for the Gram-positive bacteria) and Luria–Bertani broth (LB) (for the Gram-negative bacteria) were used to culture the bacteria.
(§3) The mass of the biofilm in this assay was detected by the crystal violet staining method. First, 100 μL of 5 × 10^5 CFU/mL bacteria was incubated with 1 μL of different peptide solutions (ranging from 51200 μM to 100 μM) for 24 h at 37 °C with 200 rpm shaking. After the biofilm formation, 100 μL of PBS was used to rinse the biofilm twice. Next, 100 µL of methanol was added to fix the biofilm, and the biofilm was then dried. Thereafter, 100 μL of 0.1% crystal violet was added and left to stain for 15 min, and then the excess crystal violet was further rinsed by PBS. After the plate had air-dried, 30% glacial acetic acid was added to each well of the plate, and the plate was shaken for 15 min before the optical density (OD) value was measured at 595 nm using a Synergy HT plate reader. The MBIC value refers to the minimum concentration at which the biofilm inhibitory rate was more than 90%.
(§4) Different from measuring the MBIC value, to determine the MBEC value, 100 μL of the bacteria was first added to 96-well plates. After the biofilm was formed, the biofilm was rinsed with PBS twice to remove the planktonic cells, and then different concentrations of the drugs were added to the biofilm (the same as the MBIC assay). The mixture was incubated at 37 °C with shaking at 200 rpm. After 24 h of incubation, the mass of the biofilm was measured in the same way as the MBIC value, and the minimum concentration at which the eradication rate was greater than 99.9% was considered to be the MBEC value.

Data set [4] concerns E. faecium (NTCC12697) biofilm. It counts as cell-based, Enterococcus faecium. The following applies: for MBIC: biofilm inhibitory rate more than 90%; for MBEC: eradication rate greater than 99.9%. As to the method:
as §2, §3, §4

A further data set concerns E. faecium (NTCC 12697). Briefly: Antimicrobial susceptibility assay (MIC/MBC). It counts as cell-based, Enterococcus faecium. The following applies: for MIC: MHB, 37 °C, 20 h. Here is the method: (§5) Six bacteria were tested in this experiment to detect the antimicrobial effects of crabrolin and its derivatives, including S. aureus (NCTC 10788), MRSA (NCTC 12493), E. coli (ATCC 8739), K. pneumoniae (ATCC 43816), E. faecium (NTCC-12697), and P. aeruginosa (ATCC 9027). The tested bacteria were cultured in Mueller Hinton broth medium (MHB) with norfloxacin (20 mg/L) as a positive control. All bacteria were incubated at 37 °C overnight and diluted to 5 × 10^5 CFU/mL before treating with the peptides. Stock solutions of 51,200 µM peptides were prepared in phosphate-buffered saline (PBS) and further diluted by a factor of two to 100 µM. Next, 1 µL of each peptide solution was mixed with 99 µL of bacterial subculture in a 96-well plate, and the plate was incubated at 37 °C for 20 h. After culturing, the absorbance of each well in the 96-well plate was analyzed at 550 nm using a Synergy HT plate reader (BioliseBioTek, Winooski, VT, USA). […] Starting with the MIC value, 10 µL of the solution from each well was dripped onto Mueller Hinton agar (MHA) plates. The plates were cultured at 37 °C for 20 h. After culturing, the lowest concentration with no colony growth was regarded as the MBC.

The subject of data set [5] is Galleria mellonella larvae. Description: Toxicity to Galleria mellonella larvae without infection. In kind it is in vivo. The following applies: highest dose (50 mg/kg).
Data set [6] deals with K. pneumoniae (ATCC 43816) biofilm. In kind it is cell-based, Klebsiella pneumoniae. The settings on record: for MBIC: biofilm inhibitory rate more than 90%; for MBEC: eradication rate greater than 99.9%. As to the method: as §2, §3, §4
In another data set the test system is E. coli (ATCC 8739). Description: Antimicrobial susceptibility assay (MIC/MBC). In kind it is cell-based, Escherichia coli. The following applies: for MIC: MHB, 37 °C, 20 h. Here is the method: as §5

Residues, ends and D or L forms follow the SMILES beside them.

The MBC is the smallest concentration meeting the test's criterion for killing. Usually MIC stands for the lowest concentration found to suppress growth. Turning to `CC[C@H](C)[C@H](NC(=O)[C@H](CCCNC(=N)N)NC(=O)[C@@H]1CCCN1C(=O)[C@H](CC(C)C)NC(=O)[C@@H](N)Cc1ccccc1)C(=O)N[C@@H](CC(C)C)C(=O)N[C@@H](CCCNC(=N)N)C(=O)N[C@@H](CCCCN)C(=O)N[C@H](C(=O)N[C@H](C(=O)N[C@@H](CCCNC(=N)N)C(=O)N[C@@H](C)C(=O)N[C@@H](CC(C)C)C(N)=O)C(C)C)[C@@H](C)CC` [Crabrolin-TR, FLPRILRKIVRAL-NH2] (H-FLPRILRKIVRAL-NH2), the LDH leakage in data set [1] is reported as roughly 20%. Besides, in data set [2] (HMEC-1, 25 μM), the “Cytotoxicity (LDH release)” value was “cytotoxic”. Moreover, the values for the MBIC in data set [3], in data set [4] and in data set [6] were 8 µM, 16 µM and 8 µM, respectively. For the same compound, the figures for the MBEC in data set [3], in data set [4] and in data set [6] were 256 µM, greater than 512 µM and 128 µM, respectively. Further, the MBC with E. faecium (NTCC 12697) is 8 µM; with E. coli (ATCC 8739), 4 µM. Also, the MIC with E. faecium (NTCC 12697) turned out to be 4 µM; in the data set with E. coli (ATCC 8739), 2 µM. For the same compound, in data set [5], the “Death of healthy larvae” value is given as “did not result in the death of healthy larvae”.

In turn, `CC[C@H](C)[C@H](NC(=O)[C@H](CC(C)C)NC(=O)[C@@H]1CCCN1C(=O)[C@H](CC(C)C)NC(=O)[C@@H](N)Cc1ccccc1)C(=O)N[C@@H](CC(C)C)C(=O)N[C@@H](CCCNC(=N)N)C(=O)N[C@@H](CCCCN)C(=O)N[C@H](C(=O)N[C@H](C(=O)N[C@H](C(=O)N[C@@H](C)C(=O)N[C@@H](CC(C)C)C(N)=O)[C@@H](C)O)C(C)C)[C@@H](C)CC` [Crabrolin, FLPLILRKIVTAL-NH2] (H-FLPLILRKIVTAL-NH2) returned an LDH leakage in data set [1] of roughly 20%. Further, the “Cytotoxicity (LDH release)” value is on record as “showed cytotoxicity” in data set [1] (100 μM) and “showed cytotoxicity” in data set [2] (HMEC-1, 100 μM). For the same compound, the MBIC in data set [3] was 128 µM; in data set [4], 32 µM; in data set [6], >512/>512 µM. The MBEC was 512 µM in data set [3], greater than 512 µM in data set [4] and >512/>512 µM in data set [6]. The MBC in the data set on E. faecium (NTCC 12697) amounted to 64 µM; with E. coli (ATCC 8739) it was 128 µM. In addition, the MIC is recorded as 16 µM with E. faecium (NTCC 12697) and 32 µM in the data set with E. coli (ATCC 8739). The “Death of healthy larvae” value in data set [5] is “did not result in the death of healthy larvae”.
